Experimental data: patent US9982005B2, “Macrolides and methods of their preparation and use” (President and Fellows of Harvard College, priority 2013, dated 2018)
Values after ≈ are worked out from the molar mass of the structure shown. Read-outs that look alike come from different tables or passages of the source.

Assays:
Type in all cases: cell-based
[1] = test system: Spn 106 S. pneumonia ATCC49619; assay: broth dilution MIC, S. pneumoniae Spn 106; conditions: Streptococcus pneumoniae
Excerpt: (§1) We have collected MIC data for a total of 50 novel macrolides that this platform has produced against over 21 unique strains of B. subtilis, E. coli, S. aureus, S. pneumoniae, and H. influenzae, including several multidrug-resistant strains, with a special focus on macrolide resistant mechanisms (vide supra). Azithromycin was included as a control macrolide. CLSI standard procedures for broth dilution MIC determination were used. […] These genotypes can be constitutive or inducible. The finding that C4-epi (unnatural) isomers of the “azaketolide” macrolide class have enhanced activities relative to C4 natural isomers is very exciting.

[2] = test system: SA101 S. aureus ATCC29213; assay: broth dilution MIC, S. aureus SA101; conditions: Staphylococcus aureus, ATCC29213, SA101 S. aureus ATCC29213; read-out: MIC
Method in brief: (§2)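 Standard CLSI broth dilution method used for MIC determination. Control: azithromycin.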

[3] = test system: Spn1533 S. pneumoniae ermB positive mefA positive; assay: broth dilution MIC, S. pneumoniae Spn1533; conditions: Streptococcus pneumoniae
Excerpt: as §1

[4] = test system: SA1708 S. aureus ermA positive msrA negative; assay: broth dilution MIC, S. aureus SA1708; conditions: Staphylococcus aureus
Excerpt: as §1

[5] = test system: HI281 H. influenzae; assay: broth dilution MIC, H. influenzae HI281; conditions: Haemophilus influenzae
Excerpt: as §1

[6] = test system: SA183 S. aureus ermA positive msrA unknown; assay: broth dilution MIC, S. aureus SA183; conditions: Staphylococcus aureus
Excerpt: as §1

[7] = test system: BS1723 B. subtilis BS168 WT wild type; assay: broth dilution MIC, B. subtilis BS1723; conditions: Bacillus subtilis, BS1723 B. subtilis BS168 WT wild type; read-out: MIC
Method in brief: as §2

[8] = test system: SA1707 S. aureus ermA negative msrA positive; assay: broth dilution MIC, S. aureus SA1707; conditions: Staphylococcus aureus
Excerpt: as §1

[9] = test system: BS1725 B. subtilis ermC; assay: broth dilution MIC, B. subtilis BS1725; conditions: Bacillus subtilis, BS1725 B. subtilis ermC (+ery)
Method in brief: as §2

[10] = test system: EC878 E. coli tolC; assay: broth dilution MIC, E. coli EC878; conditions: Escherichia coli
Method in brief: as §2

[11] = test system: SA557 S. aureus ermA unknown msrA positive; assay: broth dilution MIC, S. aureus SA557; conditions: Staphylococcus aureus; SA557 S. aureus ermA unknown msrA positive; read-out: MIC
Excerpt: as §1

[12] = test system: EC882 E. coli imp; assay: broth dilution MIC, E. coli EC882; conditions: Escherichia coli
Method in brief: as §2

[13] = test system: EC107 E. coli ATCC25922; assay: broth dilution MIC, E. coli EC107; conditions: Escherichia coli, read-out: MIC
Method in brief: as §2

[14] = test system: Spn1537 S. pneumoniae ermB positive mefA positive; assay: broth dilution MIC, S. pneumoniae Spn1537; conditions: Streptococcus pneumoniae
Excerpt: as §1

[15] = test system: Spn1509 S. pneumoniae ermB positive mefA negative; assay: broth dilution MIC, S. pneumoniae Spn1509; conditions: Streptococcus pneumoniae; Spn1509 S. pneumoniae ermB positive mefA negative; read-out: MIC
Excerpt: as §1

[16] = test system: Spn1427 S. pneumoniae ermB positive mefA negative; assay: broth dilution MIC, S. pneumoniae Spn1427; conditions: Streptococcus pneumoniae
Excerpt: as §1

[17] = test system: HI175 H. influenzae ATCC49247; assay: broth dilution MIC, H. influenzae HI175; conditions: Haemophilus influenzae
Excerpt: as §1

[18] = test system: SA506 S. aureus ermA positive msrA unknown; assay: broth dilution MIC, S. aureus SA506; conditions: Staphylococcus aureus
Excerpt: as §1

[19] = test system: SA418 S. aureus ermA negative msrA positive; assay: broth dilution MIC, S. aureus SA418; conditions: Staphylococcus aureus
Excerpt: as §1

[20] = test system: Spn160 S. pneumoniae ermB unknown mefA positive; assay: broth dilution MIC, S. pneumoniae Spn160; conditions: Streptococcus pneumoniae
Excerpt: as §1

[21] = test system: S. aureus strains; assay: MIC against S. aureus strains (Table M7); conditions: Staphylococcus aureus
Method in brief: as §2

[22] = test system: S. pneumoniae strains; assay: MIC against S. pneumoniae strains (Tables M7, M8); conditions: Streptococcus pneumoniae
Excerpt: CLSI standard procedures for broth dilution MIC determination were used. […] These genotypes can be constitutive or inducible.

[23] = test system: S. aureus (Newman, clinical isolate); assay: MIC, S. aureus Newman; conditions: Staphylococcus aureus, S. aureus (Newman, clinical isolate), round 1
Method in brief: as §2

[24] = test system: A. baumannii strains; assay: MIC against A. baumannii strains (Table M8); conditions: Acinetobacter baumannii, BAA747, A. baumannii BAA747-1
[25] = test system: K. pneumoniae strains; assay: MIC against K. pneumoniae strains (Table M8); conditions: Klebsiella pneumoniae, K. pneumoniae 10031
[26] = test system: H. influenzae strains; assay: MIC against H. influenzae strains (Table M8); conditions: Haemophilus influenzae
Method in brief: as §2

[27] = test system: E. coli (MC4100); assay: MIC, E. coli MC4100; conditions: Escherichia coli, round 1, read-out: MIC
Method in brief: as §2

[28] = test system: E. coli strains; assay: MIC against E. coli strains (Table M7); conditions: Escherichia coli, ATCC25922, E. coli ATCC 25922
Method in brief: as §2

[29] = test system: E. faecalis strains; assay: MIC against E. faecalis strains (Table M8); conditions: Enterococcus faecalis, E. faecalis 29212
[30] = Spn160 S. pneumoniae ermB unknown mefA positive, read-out: MIC
[31] = Spn 106 S. pneumonia ATCC49619, read-out: MIC

SMILES | MIC [2] | MIC [3] | MIC [4] | MIC [5] | MIC [6] | MIC [7] | MIC [8] | MIC [9] | MIC [10] | MIC [11] | MIC [12] | MIC [13] | MIC [14] | MIC [15] | MIC [16] | MIC [17] | MIC [18] | MIC [19] | MIC [20, 30] | MIC [1, 31] | other results
CC[C@H]1OC(=O)C(C)C(=O)[C@@H](C)[C@@H](O[C@@H]2OC(C)CC(N(C)C)C2O)[C@](C)(OC)C[C@@H](C)CN[C@H](C)[C@H]2N(CCCCn3cc(-c4ccccn4)nn3)C(=O)O[C@]12C (some centres unmarked) [FSM-20754] | 2 µg/mL (≈ 2.46 µM) | > 32 µg/mL | 4 µg/mL (≈ 4.91 µM) | 8 µg/mL (≈ 9.83 µM) | > 32 µg/mL | 2 µg/mL (≈ 2.46 µM) | 4 µg/mL (≈ 4.91 µM) | 32 µg/mL (≈ 39.3 µM) | 0.5 µg/mL (≈ 0.614 µM) | 4 µg/mL (≈ 4.91 µM) | 0.125 µg/mL (≈ 0.154 µM) | 16 µg/mL (≈ 19.7 µM) | > 32 µg/mL | 4 µg/mL (≈ 4.91 µM) | > 32 µg/mL | 2 µg/mL (≈ 2.46 µM) | > 32 µg/mL | 4 µg/mL (≈ 4.91 µM) | 0.25 µg/mL (≈ 0.307 µM) | – | MIC ([1]; ATCC49619): 0.0625 µg/mL (≈ 0.0768 µM)
CC[C@H]1OC(=O)C(C)(F)C(=O)[C@H](C)[C@@H](O[C@@H]2OC(C)CC(N(C)C)C2O)[C@](C)(OC)C[C@@H](C)CN[C@H](C)[C@H]2N(CCCCn3cc(-c4ccccn4)nn3)C(=O)O[C@]12C (some centres unmarked) [FSM-20738] | 0.5 to 1 µg/mL (≈ 0.601 to 1.2 µM) | – | 2 µg/mL (≈ 2.4 µM) | 4 to 32 µg/mL (≈ 4.81 to 38.5 µM) | > 32 µg/mL | 0.25 µg/mL (≈ 0.3 µM) | 1 µg/mL (≈ 1.2 µM) | 4 µg/mL (≈ 4.81 µM) | 1 µg/mL (≈ 1.2 µM) | 1 µg/mL (≈ 1.2 µM) | 0.0625 µg/mL (≈ 0.0751 µM) | 8 µg/mL (≈ 9.62 µM) | > 32 µg/mL | 0.5 to 8 µg/mL (≈ 0.601 to 9.62 µM) | > 32 µg/mL | 0.5 to 8 µg/mL (≈ 0.601 to 9.62 µM) | > 32 µg/mL | 1 µg/mL (≈ 1.2 µM) | – | 0.0156 to 0.25 µg/mL (≈ 0.0187 to 0.3 µM) | MIC ([21]; ATCC29213, S. aureus ATCC 29213, read-out: MIC S. aureus (ATCC 29213)): 0.5 µg/mL (≈ 0.601 µM); MIC ([21]; S. aureus 506, read-out: MIC S. aureus (506)): > 32 µg/mL; MIC ([21]; S. aureus 1708, read-out: MIC S. aureus (1708)): 0.5 µg/mL (≈ 0.601 µM); MIC ([21]; USA300, S. aureus USA300, read-out: MIC S. aureus (USA300)): 1 µg/mL (≈ 1.2 µM); MIC ([22]; S. pneumoniae 1509, read-out: MIC S. pneumoniae (1509)): 2 µg/mL (≈ 2.4 µM); MIC ([22]; S. pneumoniae 1533, read-out: MIC S. pneumoniae (1533)): > 32 µg/mL; MIC ([22]; S. pneumoniae 1537, read-out: MIC S. pneumoniae (1537)): > 32 µg/mL; MIC ([22]; read-out: MIC S. pneumonae (160)): ≤ 0.0625 µg/mL; MIC ([22]; read-out: MIC S. pneumoniae (49619)): ≤ 0.0625 µg/mL; MIC [23]: 1 µg/mL (≈ 1.2 µM); MIC [24]: 32 µg/mL (≈ 38.5 µM); MIC [25]: 4 µg/mL (≈ 4.81 µM); MIC ([26]; H. influenzae 49247, read-out: MIC H. influenzae (49247)): 0.5 µg/mL (≈ 0.601 µM); MIC ([26]; H. influenzae 49766, read-out: MIC H. influenzae (49766)): 4 µg/mL (≈ 4.81 µM); MIC [27]: 8 µg/mL (≈ 9.62 µM); MIC [28]: 8 µg/mL (≈ 9.62 µM); MIC [29]: 0.125 µg/mL (≈ 0.15 µM); MIC [20]: 0.0625 to 1 µg/mL (≈ 0.0751 to 1.2 µM)
CC[C@H]1OC(=O)[C@H](C)C(=O)[C@H](C)[C@@H](O[C@@H]2OC(C)CC(N(C)C)C2O)[C@](C)(OC)C[C@@H](C)C(=O)N[C@H](C)[C@H]2N(CCCCn3cc(-c4ccccn4)nn3)C(=O)O[C@]12C (some centres unmarked) [FSM-20781] | > 32 µg/mL | > 32 µg/mL | > 32 µg/mL | 32 µg/mL (≈ 38.6 µM) | > 32 µg/mL | – | > 32 µg/mL | – | – | > 32 µg/mL | – | – | > 32 µg/mL | > 32 µg/mL | > 32 µg/mL | > 32 µg/mL | > 32 µg/mL | > 32 µg/mL | > 32 µg/mL | 8 µg/mL (≈ 9.66 µM) | –
